Values after ≈ are worked out from the molar mass of the structure shown. Active and inactive are the calls of the source. The rule behind the calls is not given here.
Experiments:
Cryptococcus neoformans [1] = test: Anti-cryptococcal activity against Cryptococcus neoformans H99 assessed as inhibition of fungal growth at 4 to 8 ug/ml measured for 3 to 48 hrs by time-growth curve assay; assay type: functional, organism-based; details: dose 4-8 µg/ml, time 3-48 hrs
Cryptococcus neoformans [2] = test: Inhibition of biofilm formation in Cryptococcus neoformans H99 at 2 ug/ml incubated for 24 hrs by XTT reduction assay; assay type: functional
Cryptococcus neoformans [3] = test: Inhibition of biofilm formation in Cryptococcus neoformans H99 at 0.5 to 8 ug/ml incubated for 24 hrs by XTT reduction assay; assay type: functional, organism-based; details: dose 0.5-8 µg/ml, DDE = dose-dependent effect
Cryptococcus neoformans [4] = test: microbe, parasite or virus in culture; assay type: functional, organism-based; details: H99, 72 h
Description: Anti-cryptococcal activity against Cryptococcus neoformans H99 assessed as inhibition of fungal growth incubated for 72 hrs by microdilution method

Pichia kudriavzevii = test: microbe, parasite or virus in culture; assay type: functional, organism-based; details: Pichia kudriavzevii, 10153, 48 h
Description: Antifungal activity against Candida krusei 10153 assessed as inhibition of fungal growth incubated for 48 hrs by microdilution method

Aspergillus fumigatus [5] = test: microbe, parasite or virus in culture; assay type: functional, organism-based; details: Aspergillus fumigatus, 7544, 48 h
Description: Antifungal activity against Aspergillus fumigatus 7544 assessed as inhibition of fungal growth incubated for 48 hrs by microdilution method

Candida tropicalis = test: microbe, parasite or virus in culture; assay type: functional, organism-based; details: Candida tropicalis, 10186, 48 h
Description: Antifungal activity against Candida tropicalis 10186 assessed as inhibition of fungal growth incubated for 48 hrs by microdilution method

Cryptococcus neoformans [6] = test: Inhibition of Cryptococcus neoformans H99 delta5,6-desaturase assessed as upregulation of ERG4 gene expression at 2 ug/ml incubated for 24 hrs by RT-PCR analysis; details: dose 2.0 µg/ml
Candida albicans [7] = test: microbe, parasite or virus in culture; assay type: functional, organism-based; details: Candida albicans, 904, 48 h
Description: Antifungal activity against Candida albicans 904 assessed as inhibition of fungal growth incubated for 48 hrs by microdilution method

[8] = microbe, parasite or virus in culture; assay type: functional; details: Cryptococcus; time 72 hrs
Description: Anti-cryptococcal activity against Cryptococcus assessed as inhibition of fungal growth incubated for 72 hrs by microdilution method

Cryptococcus neoformans [9] = test: Inhibition of Cryptococcus neoformans H99 delta5,6-desaturase assessed as upregulation of ERG5 gene expression at 2 ug/ml incubated for 24 hrs by RT-PCR analysis; details: dose 2.0 µg/ml
Cryptococcus neoformans [10] = test: Inhibition of Cryptococcus neoformans H99 delta5,6-desaturase assessed as upregulation of ERG2 gene expression at 2 ug/ml incubated for 24 hrs by RT-PCR analysis; details: dose 2.0 µg/ml
Candida albicans [11] = test: microbe, parasite or virus in culture; assay type: functional, organism-based; details: SC5314, 48 h
Description: Antifungal activity against Candida albicans SC5314 assessed as inhibition of fungal growth incubated for 48 hrs by microdilution method

[Candida] auris [12] = microbe, parasite or virus in culture; assay type: functional, organism-based; details: Candidozyma auris, 0029, 48 h
Description: Antifungal activity against Candida auris 0029 assessed as inhibition of fungal growth incubated for 48 hrs by microdilution method

Candida albicans [13] = test: microbe, parasite or virus in culture; assay type: functional, organism-based; details: Candida albicans, 0304103, 48 h
Description: Antifungal activity against Candida albicans 0304103 assessed as inhibition of fungal growth incubated for 48 hrs by microdilution method

Cryptococcus neoformans [14] = test: Inhibition of Cryptococcus neoformans H99 delta5,6-desaturase assessed as upregulation of ERG3 gene expression at 2 ug/ml incubated for 24 hrs by RT-PCR analysis; details: dose 2.0 µg/ml
Aspergillus fumigatus [15] = test: microbe, parasite or virus in culture; assay type: functional, organism-based; details: 023-2, 48 h
Description: Antifungal activity against Aspergillus fumigatus 023-2 assessed as inhibition of fungal growth incubated for 48 hrs by microdilution method

Nakaseomyces glabratus [16] = test: microbe, parasite or virus in culture; assay type: functional, organism-based; details: Nakaseomyces glabratus, 9025, 48 h
Description: Antifungal activity against Candida glabrata 9025 assessed as inhibition of fungal growth incubated for 48 hrs by microdilution method

Nakaseomyces glabratus [17] = test: microbe, parasite or virus in culture; assay type: functional, organism-based; details: Nakaseomyces glabratus, 9073, 48 h
Description: Antifungal activity against Candida glabrata 9073 assessed as inhibition of fungal growth incubated for 48 hrs by microdilution method

Cryptococcus neoformans [18] = test: Inhibition of Cryptococcus neoformans H99 delta5,6-desaturase assessed as upregulation of ERG24 gene expression at 2 ug/ml incubated for 24 hrs by RT-PCR analysis; details: dose 2.0 µg/ml
Cryptococcus neoformans [19] = test: Inhibition of Cryptococcus neoformans H99 delta5,6-desaturase assessed as upregulation of ERG1 gene expression at 2 ug/ml incubated for 24 hrs by RT-PCR analysis; details: dose 2.0 µg/ml
[Candida] auris [20] = Antifungal activity against Candida auris 15448 assessed as inhibition of fungal growth incubated for 48 hrs by microdilution method; assay type: functional, organism-based; details: Candidozyma auris, 15448, 48 h
Cryptococcus neoformans [21] = test: Inhibition of biofilm formation in Cryptococcus neoformans H99 at 8 ug/ml incubated for 24 hrs by XTT reduction assay; assay type: functional
Cryptococcus neoformans [22] = test: Inhibition of Cryptococcus neoformans H99 delta5,6-desaturase assessed as upregulation of ERG11 gene expression at 2 ug/ml incubated for 24 hrs by RT-PCR analysis; details: dose 2.0 µg/ml
[Candida] auris [23] = microbe, parasite or virus in culture; assay type: functional, organism-based; details: Candidozyma auris, 0030, 48 h
Description: Antifungal activity against Candida auris 0030 assessed as inhibition of fungal growth incubated for 48 hrs by microdilution method

Cryptococcus neoformans [24] = test: Anti-cryptococcal activity against Cryptococcus neoformans H99 assessed as inhibition of fungal growth at 1 to 8 ug/ml incubated upto 72 hrs by time-growth curve assay; assay type: functional, organism-based; details: dose 1-8 µg/ml
Cryptococcus neoformans [25] = test: Fungicidal activity against Cryptococcus neoformans H99 assessed as fungal growth inhibition incubated upto 72 hrs by time-fungicidal curve assay; assay type: functional

Structure (SMILES): Cl.Clc1ccc(C2CCC(NCCC3CCCCC3)c3ccsc32)cc1Cl (centres undefined)
- Activity (Cryptococcus neoformans [1]): Active
- inhibition at 2 µg/mL (Cryptococcus neoformans [2]): 50%
- inhibition (Cryptococcus neoformans [3]): Dde
- IC50 (Cryptococcus neoformans [4]): 1 µg/mL

Structure (SMILES): CN1CCC(CCNC2CCC(c3ccc(Cl)c(Cl)c3)c3sccc32)CC1.Cl (centres undefined)
- IC50 (Cryptococcus neoformans [4]): 2 µg/mL

Structure (SMILES): OC(Cn1cncn1)(Cn1cncn1)c1ccc(F)cc1F [FLUCONAZOLE]
- IC50 (Pichia kudriavzevii): 64 µg/mL (≈ 209 µM)
- IC50 (Aspergillus fumigatus [5]): > 64 µg/mL
- IC50 (Candida tropicalis): > 64 µg/mL
- Activity (Cryptococcus neoformans [6]): Active
- IC50 (Candida albicans [7]): > 64 µg/mL
- MIC50 [8]: 1.14 µg/mL (≈ 3.72 µM)
- Activity (Cryptococcus neoformans [9]): Active
- Activity (Cryptococcus neoformans [10]): Active
- IC50 (Cryptococcus neoformans [4]): 2 µg/mL (≈ 6.53 µM)
- IC50 (Candida albicans [11]): 0.25 µg/mL (≈ 0.816 µM)
- IC50 ([Candida] auris [12]): > 64 µg/mL
- IC50 (Candida albicans [13]): > 64 µg/mL
- Activity (Cryptococcus neoformans [14]): Active
- IC50 (Aspergillus fumigatus [15]): > 64 µg/mL
- IC50 (Nakaseomyces glabratus [16]): 16 µg/mL (≈ 52.2 µM)
- IC50 (Nakaseomyces glabratus [17]): 64 µg/mL (≈ 209 µM)
- Activity (Cryptococcus neoformans [18]): Active
- Activity (Cryptococcus neoformans [19]): Active
- IC50 ([Candida] auris [20]): 4 µg/mL (≈ 13.1 µM)
- inhibition at 8 µg/mL (Cryptococcus neoformans [21]): 50%
- Activity (Cryptococcus neoformans [22]): Active
- IC50 ([Candida] auris [23]): > 64 µg/mL
- Activity (Cryptococcus neoformans [24]): Active

Structure (SMILES): Cl.Clc1ccc(C2CCC(NC3CC3)c3ccsc32)cc1Cl (centres undefined)
- IC50 (Cryptococcus neoformans [4]): 16 µg/mL

Structure (SMILES): C[C@@H]1[C@H](O)[C@@H](C)/C=C/C=C/C=C/C=C/C=C/C=C/C=C/[C@H](O[C@@H]2O[C@H](C)[C@@H](O)[C@H](N)[C@@H]2O)C[C@@H]2O[C@](O)(C[C@@H](O)C[C@@H](O)[C@H](O)CC[C@@H](O)C[C@@H](O)CC(=O)O[C@H]1C)C[C@H](O)[C@H]2C(=O)O [AMPHOTERICIN B]
- MFC (Cryptococcus neoformans [25]): 4 µg/mL (≈ 4.33 µM)
- MIC50 [8]: 0.13 µg/mL (≈ 0.141 µM)
- IC50 (Cryptococcus neoformans [4]): 0.25 µg/mL (≈ 0.271 µM)

Structure (SMILES): CN(C)C1CCC(c2ccc(Cl)c(Cl)c2)c2sccc21.Cl (centres undefined)
- IC50 (Cryptococcus neoformans [4]): 32 µg/mL

Structure (SMILES): Cl.Clc1ccc(C2CCC(NCc3ccncc3)c3ccsc32)cc1Cl (centres undefined)
- IC50 (Cryptococcus neoformans [4]): 16 µg/mL

— ChEMBL document CHEMBL5154781, “Discovery of Novel Sertraline Derivatives as Potent Anti-Cryptococcus Agents” (J Med Chem, 2022)
